Values of other authors, collected in patent US9333184B2, “Composition and method for affecting male and female hormone levels” (NOKOMIS RESEARCH, INC., priority 2011, dated 2016).

Settings: for ingested amount metabolically degraded: intestine to blood stream

ingested amount metabolically available	ingested amount metabolically degraded	Compound
about 70%	30%	NCCCNCCCCNCCCN [spermine]
about 70%	30%	NCCCCNCCCN [spermidine]
